{"source": "patent US20240139276A1", "about": "“HAIR GROWTH AGENT” (ADJUVANT HOLDINGS CO., LTD., priority 2021, published 2024)", "origin": "cited, not measured here", "key": {"[1]": {"test_system": "vascular endothelial growth factor (VEGF) expression in human dermal papilla cells", "conditions": "adenosine allowed to act on human dermal papilla cells"}, "[2]": {"test_system": "fibroblast growth factor 7 (FGF-7) expression in human dermal papilla cells", "conditions": "adenosine allowed to act on human dermal papilla cells"}}}
{"compound": "Nc1ncnc2c1ncn2[C@@H]1O[C@H](CO)[C@@H](O)[C@H]1O", "note": "[adenosine]", "values": [{"measurement": "expression of vascular endothelial growth factor (VEGF)", "setting": "[1]", "value": "promotes expression of vascular endothelial growth factor (VEGF)"}, {"measurement": "expression of fibroblast growth factor 7 (FGF-7)", "setting": "[2]", "value": "also promotes expression of fibroblast growth factor 7 (FGF-7)"}]}
